Results from patent publication US20110033938A1, “SYSTEM FOR INDUCIBLE GENE EXPRESSION IN CHLAMYDOMONAS” (priority 2008, published 2011).
Read-outs that look alike come from different tables or passages of the source.

Legend:
Chlamydomonas growth = details: for toxicity effects on Chlamydomonas growth: TAP medium; for effect on Chlamydomonas growth rate: all three growth media
Source text: (§1) In order to measure quantitatively the transcription of a gene sequence placed under the control of the Cyc6 promoter, we cloned downstream of this promoter the reporter gene cRLuc (Fuhrmann et al., 2004). This gene was also cloned downstream of the strong constitutive PsaD promoter (Fischer e Rochaix, 2001) obtaining the cassettes Cyc6:cRLuc and PsaD:cRLuc (FIG. 1A). Chlamydomonas cells were transformed with these cassettes according to Kindle (1990) and the transformed cells were inoculated in TAP growth medium (Harris, 1989) at a cell density of 10^6 cells/ml. 30 hours later, Ni2+ was added at a final concentration of 25, 50 and 75 μM and Luc activity was measured in the cellular lysates at different times after induction using the Luciferase Assay System (Promega, cat. E2820).
(§2) Ni2+ was added to cells transformed with the construct Cyc6:cRLuc (indicated as “transformed cells” from now on) and grown in TAP, TAP/ENEA1 and TAP/ENEA2 growth media. […] An ideal inducible gene system should be promptly reversible after the addition of an antagonist of the inducer, effective at micromolar concentrations.
(§3) Since the Cyc6 promoter is switched off by Cu2+, the use of chelators specific for that ion can be an alternative method for the reversible induction of this promoter. As an example, FIGS. 4A and 4B show, respectively, the Luc activity and the growth curves of cells transformed with the construct Cyc6:cRLuc grown in TAP/ENEA2 growth medium and induced with the chelators listed in Table 3. […] In the present invention, we propone an alternative method to the Ni2+/EDTA system: activation by Cu chelators, followed by reversion by Cu2+ addition. […] In these experiments, the Cyc6 promoter was induced by 2 μM TETA and repressed by 1 μM Cu2+ (FIG. 4D) and by 5 μM TETA and by 2 μM Cu2+ (FIG. 4E). At 88 hours from TETA addition, the culture in stationary phase was diluted 1:20 and after 30 hours (0 hours of the second cycle) TETA was added at concentrations of 2 (FIG. 4D) e 5 μM (FIG. 4E). At 16 hours Cu2+ was added at the concentration of 1 (FIG. 4D) and 2 μM (FIG. 4E). […] In the system described here, activation and repression of the promoter are obtained respectively by addition of an inducer and its antagonist. In none of the chemically regulated gene expression systems described to date, such an activation followed by repression has been described.
A: Schematic maps of the PsaD:cRLuc and Cyc6:cRLuc constructs B: Schematic maps of the Cyc6:Rb-int-1, Cyc6:Rb-int-2, Cyc6:Rb:int-3 constructs C: Growth curves in TAP medium after addition of different Ni concentrations D: Luc activity driven by PsaD and Cyc6 in TAP medium after addition of different Ni concentrations
A, C, E: Luc activity of Chlamydomonas cells transformed with the Cyc6:cRLuc construct in TAP, TAP/ENEA1 and TAP/ENEA2 growth media in the presence of 25 μM (A), 50 μM (C), 75 μM (E) Ni2+.

Cyc6 promoter [1] = assay type: cell-based, Chlamydomonas reinhardtii; details: for Luc activity induction relative to PsaD: 75 μM Ni2+
Source text: as §1, §2, §3
A, C, E: Luc activity of Chlamydomonas cells transformed with the Cyc6:cRLuc construct in TAP, TAP/ENEA1 and TAP/ENEA2 growth media in the presence of 25 μM (A), 50 μM (C), 75 μM (E) Ni2+. B, D, F: Growth curves of the transformed cells grown in TAP, TAP/ENEA1 and TAP/ENEA2 growth media in the presence of different Ni2+ concentrations, 25 μM (B), 50 μM (D), 75 μM (F) Ni2+. For the composition of the different media, see Table 2.
(§4) A: Luc activity of cells transformed with Cyc6:cRLuc construct induced by the different chelators listed in Table 3 in TAP/ENEA2 growth medium. B: Growth curves in TAP/ENEA2 growth medium in the presence of different Cu-chelators.

Cyc6 promoter [2] = assay: Reversibility of Cyc6 promoter induction (Luc activity) after addition of an antagonist (EDTA or Cu2+); assay type: cell-based, Chlamydomonas reinhardtii
Source text: as §3, §4

## c1cnc2c(c1)ccc1cccnc12 [1.10 phenanthroline, 1,10-phenanthroline]
Chlamydomonas growth; chelator 10 μM, TAP/ENEA2
  toxicity on Chlamydomonas growth: toxic

## Cc1cc(-c2ccc(S(=O)(=O)O)cc2)c2ccc3c(-c4ccc(S(=O)(=O)O)cc4)cc(C)nc3c2n1 [BCS, bathocuproinedisulfonic acid]
Cyc6 promoter [1]; chelator 10 μM, TAP/ENEA2
  activation of the Cyc6 promoter (Luc activity): able to activate the Cyc6 promoter

## [Cu+2] [Cu2+]
Cyc6 promoter [2]; 2 μM Cu2+ added 16 hours after chelator addition, TAP/ENEA2
  effect on Luc activity after TETA induction: represses Luc activity
Cyc6 promoter [2]; micromolar Cu2+, TAP/ENEA2, FIG. 4C
  reversion of TETA induction by Cu2+: can be reverted

## O=C(O)CN(CCN(CC(=O)O)CC(=O)O)CC(=O)O [EDTA]
Cyc6 promoter [2]; EDTA 25, 50 and 150 μM added 16 hours after 25 or 50 μM Ni2+, TAP/ENEA2 and TAP
  reversion of Cyc6 promoter activity (Luc) by EDTA: only partially reverted

## Cn1ccnc1CNC1CC(NCc2nccn2C)CC(NCc2nccn2C)C1 (stereo not drawn) [IM, 1,3,5-cis,cis,-triaminocyclohexane-N,N′,N″-tris-(2-methyl-(N-methylimidazole))]
Cyc6 promoter [1]; chelator 10 μM, TAP/ENEA2
  activation of the Cyc6 promoter (Luc activity): able to activate the Cyc6 promoter

## [Ni+2] [Ni2+]
Cyc6 promoter [1]; 25 μM Ni2+
  Cyc6 promoter activity in TAP, TAP/ENEA1 and TAP/ENEA2: active only in TAP/ENEA2 growth medium
Cyc6 promoter [1]; 25 μM Ni2+, TAP medium
  activation of the Cyc6 promoter: not sufficient to activate the Cyc6 promoter
Cyc6 promoter [1]; 25 μM Ni2+, TAP/ENEA2
  Cyc6 promoter activity relative to PsaD promoter: same level of activity as the strong PsaD promoter
Cyc6 promoter [1]; 50 μM Ni2+
  increase of Cyc6 promoter activity in TAP/ENEA2 with respect to TAP medium: 25 times
Cyc6 promoter [1]; 50 μM Ni2+, TAP
  Cyc6 promoter activity relative to PsaD: 1/10
Cyc6 promoter [1]; 50 μM Ni2+, TAP/ENEA1
  Cyc6 promoter activity relative to PsaD: ½
Cyc6 promoter [1]; 50 μM Ni2+, TAP/ENEA2
  Cyc6 promoter activity relative to PsaD: 2.5 fold more than PsaD
Cyc6 promoter [1]; TAP/ENEA1
  Luc activity induction relative to PsaD: about two-fold
Cyc6 promoter [1]; TAP/ENEA2
  Luc activity induction relative to PsaD: about two-fold
Cyc6 promoter [1]; 25, 50 and 75 μM Ni2+, TAP medium
  Luc activity after induction compared to PsaD promoter: low compared to the Luc activity driven by the PsaD promoter
Chlamydomonas growth; 25 μM Ni2+
  toxicity effects on Chlamydomonas growth: does not have toxic effects
Chlamydomonas growth; 25 μM Ni2+, all three growth media (TAP, TAP/ENEA1, TAP/ENEA2)
  toxic effects on growth: only minor toxic effects
Chlamydomonas growth; 50 μM Ni2+
  toxicity effects on Chlamydomonas growth: toxicity effects
  effect on Chlamydomonas growth rate: evident slowing down of Chlamydomonas growth rate
Chlamydomonas growth; 75 μM Ni2+
  toxicity effects on Chlamydomonas growth: toxicity effects
  effect on Chlamydomonas growth rate: evident slowing down of Chlamydomonas growth rate

## NCCNCCNCCN [TETA, triethylentetramine]
Cyc6 promoter [1]
  Cyc6 promoter activation in TAP/ENEA2 versus TAP: only in TAP/ENEA2 growth medium
  activation of the Cyc6 promoter (Luc activity): able to activate the Cyc6 promoter
  time course of Luc activity after chelator addition: increases steadily until 48 hours
Cyc6 promoter [2]
  induction in a second growth cycle: a second induction is obtained
